Assay results reported in patent publication US7833795B2, “Assessment of cardiovascular risk using isoprostane biomarkers and COX-2 selective inhibitors” (The Trustees of the University of Pennsylvania, priority 2004, dated 2010).

Key:
Assay type in all cases: in vivo, rat
[1] = tested on: Male Fisher 344 rats; assay: Plasma free plus esterified 8-iso-PGF2α by GC/MS; details: for Free plus esterified 8-iso-PGF2a (by GC-MS): plasma
Procedure: (§1) Animals and treatment protocol: Male Fisher 344 rats (260-280 g) obtained from Charles River Laboratories (Raleigh, N.C.) were used in all experiments. The animals were housed three to a cage. Autoclaved hardwood bedding was used in solid-bottom polycarbonate cages with filter tops. Animal rooms were maintained at 20-25° C. with 35-70% relative humidity with alternating 12-hour light and dark cycles. The rats had free access to deionized, reverse-osmosis-treated water and received autoclaved NIH 31 rodent chow (Zeigler Bros., Gardners, Pa.) ad libitum. For all experiments, rats were fasted overnight and then administered intraperitoneal injections of carbon tetrachloride in canola oil. Control rats received an equal volume of canola oil. Fasting continued throughout the experiment. Rats were anesthetized with Nembutal (0.1 ml/100 g body weight) and 5 ml blood was removed from the dorsal aorta proximal to its bifurcation into the common iliac arteries.
Indomethacin pretreatment: The indomethacin regimen used has been previously shown to inhibit COX activity in rats by 90% (dose of 5 mg/kg s.c. 24 hours, 12 hours, and 2 hours prior to the injection of CCl4) (Jackson, 1989, J. Pharmacol. Exp. Ther. 250: 9-21). An additional booster dose was injected 8 hours after the last injection of CCl4 for the measurements performed 16 hours after treatment with CCl4.
Meclofenamic acid pretreatment: Meclofenamic acid was injected at a dose of 5 mg/kg i.p. 12 h and 2 h prior to the injection of CCl4.
Carbon tetrachloride (CCL4) treatment: Animals from each of the three dose groups (Control-canola oil, 120 mg/kg CCl4 i.p. and 1200 mg/kg CCl4 i.p.) were investigated at three time points (2, 7, and 16 hours after CCl4 injection). Indomethacin-pretreated rats were also investigated at the same three time points, and the meclofenamic acid-pretreated rats were investigated at one time point (7 hours). Each group consisted of five rats for each analysis, except the meclofenamic acid pretreatment group which consisted of six rats. Animal treatment, sample preparation, assessment of liver histology and serum enzyme activities are described elsewhere (Kadiiska et al., 2000, Free Radic. Biol. Med. 28: 838-845; Jackson, 1989, J. Pharmacol. Exp. Ther. 250: 9-21) and were carried out at NIEHS, Research Triangle Park, N.C.
Plasma sample preparation: Blood (5 ml) was drawn through single draw Vacutainer® needles (21 Gauge) into open Vacutainer® blood collection tubes containing heparin. The tubes were gently inverted 2-3 times for mixing and immediately placed on ice. Blood was centrifuged (2,000 rpm for 10 minutes at 4° C.) no more than 30 minutes after collection, and the plasma was collected, frozen on dry ice and stored at −70° C.
Measurement of the sum of free plus esterified 8-iso-PGF2α in plasma were performed using an improved GC/MS-based analysis for the quantitation of this isoprostane in plasma. A detailed protocol for this extraction and quantitation has been published (Parker et al., 2001, Mol. Biotechnol. 18: 105-118). Measurements of the sum of free plus esterified 8-iso-PGF2α in plasma were performed at NIEHS, Research Triangle Park, N.C.

[2] = tested on: Male Fisher 344 rats; assay: Liver enzyme activities, histopathology and other clinical parameters after CCl4; details: CCl4 120 and 1200 mg/kg; 2, 7, 16 h
Procedure: as §1, with “Rats were anesthetized with Nembutal (0.1 ml/100 g body weight) and 5 ml blood was removed from the dorsal aorta proximal to its bifurcation into the common iliac arteries.” left out
Serum enzyme activities of lactic acid dehydrogenase (LDH), alanine aminotransferase (ALT), alkaline phosphatase (ALP), aspartate aminotransferase (AST), sorbitol dehydrogenase (SDH), 5′-nucleotidase (5′-NT), serum concentration of total bile acids (TBA), and liver histopathology were performed, as described (Kadiiska et al., 2000, Free Radic. Biol. Med. 28:838-845). In addition, other clinical parameters such as serum albumin, total protein, total iron, total iron binding capacity, nitrite/nitrate, and urinary creatinine were determined, using standard techniques known to those in the art.

[3] = tested on: Male Fisher 344 rats; assay: Plasma MDA, Bioxytech LPO-586 colorimetric assay; details: both CCl4 doses
Procedure: as §1, with “arteries. […]” for “arteries.”
Two colorimetric-based assays, using third derivative spectroscopy, were also used to measure MDA in plasma. […] One molecule of free MDA combines with 2 molecules of the chromogenic agent to produce a stable chromophore with a maximal absorbance at 586 nm. In both assays, the concentration of MDA was determined with 3rd derivative spectroscopy. […]

ClC(Cl)(Cl)Cl [CCl4, Carbon tetrachloride]
Free plus esterified 8-iso-PGF2a (by GC-MS) ([1]; CCl4 120 mg/kg i.p., 2 h): 3.07 ng/mL | Free plus esterified 8-iso-PGF2a (by GC-MS) ([1]; CCl4 120 mg/kg i.p., 7 h): 1.79 ng/mL | Free plus esterified 8-iso-PGF2a (by GC-MS) ([1]; CCl4 120 mg/kg i.p., 16 h): 0.93 ng/mL | Free plus esterified 8-iso-PGF2a (by GC-MS) ([1]; CCl4 1200 mg/kg i.p., 2 h): 6.63 ng/mL | Free plus esterified 8-iso-PGF2a (by GC-MS) ([1]; CCl4 1200 mg/kg i.p., 7 h): 4.39 ng/mL | Free plus esterified 8-iso-PGF2a (by GC-MS) ([1]; CCl4 1200 mg/kg i.p., 16 h): 1.68 ng/mL | increase of free plus esterified plasma 8-iso-PGF2α ([1]; high dose CCl4, 2 h): 15 fold | increase of free plus esterified plasma 8-iso-PGF2α ([1]; high dose CCl4, 7 h): 10 fold | increase of free plus esterified plasma 8-iso-PGF2α ([1]; high dose CCl4, 16 h): 4 fold | plasma iron concentrations and total iron binding capacity [2]: significantly increased only at the high dose at 16 hours | plasma nitrite/nitrate levels [2]: significantly increased only at the high dose at all three time points | plasma MDA with LPO-586 reagents, 3rd derivative analysis [3]: significant increase was found only for the early time points
